Measured values as given in patent US7781468B2, “Tyrosine derivatives substituted by N-arylacryloyl as agonists of hPPAR alpha and/or hPPAR gamma” (Beijing Molecule Science Technology Co., Ltd., priority 2004, dated 2010).

Key:
Human PPARα = biological target: T1, Human PPARα (Homo sapiens, UniProt Q07869); assay: Activity assay on activating human PPARα (GAL4 chimeric receptor luciferase reporter, transient transfection in 293-T cells); format: cell-based; conditions: for Photon number (×10^4) / Increased multiple vs control: compound 10 μM; for Photon number (×10^4): luciferase measured 24 h after administration, control 2.1; for Increased multiple vs control: vs 0.2‰ DMSO blank control; for EC50: activation of PPARα
T1 construct: expressed in transfected cells; host or cells: 293-T cells
T1 sequence (Q07869 239-466 limits assumed): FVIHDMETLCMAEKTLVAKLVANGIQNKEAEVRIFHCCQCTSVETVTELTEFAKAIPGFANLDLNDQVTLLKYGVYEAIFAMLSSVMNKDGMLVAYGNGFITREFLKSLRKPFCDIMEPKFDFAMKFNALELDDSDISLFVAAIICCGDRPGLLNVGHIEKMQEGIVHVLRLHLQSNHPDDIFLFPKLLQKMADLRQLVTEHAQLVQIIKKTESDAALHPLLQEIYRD
Protocol: (§1) The compounds were screened with respect to their functional effect of instantaneous transfection in 293-T cells, so that their capabilities of activating PPAR subtypes were determined. A chimeric receptor system as established in advance was used to compare the influence of receptor subtypes on the transcription activity of same target gene, with Rluc as an internal control to reduce the endogenous influence. Human PPARα and PPARγ ligand-binding domains were fused respectively with yeast transcription factor GAL4 DNA-binding domains, and then linked to expression vector pM of mammal, to thereby construct two plasmids pM-hPPARα/GAL4 and pM-PPARγ/GAL4. GAL4 DNA-binding area was linked to pB4-tk-luc, to thereby construct pB4-RES-tk-luc (a firefly luciferase reporter gene comprising GAL4 DNA-binding site). pRL-CMV-Rluc was used as an internal control to normalize transfection efficiency and endogenous influence.
(§2) 293-T cells were incubated in a 48-well plate at a cell density of 2-4×10^4/well, using a phenol red-free and antibiotic-free 1640 medium containing 10% defatted fetal calf serum (FCS). After culturing for 48 h, the medium was replaced with a phenol red-free and antibiotic-free 1640 medium containing 5% defatted FCS, and then three plasmids pM-hPPAR/GAL4, pB4-RES-tk-luc and pRL-CMV-Rluc pertaining to two subtypes were respectively co-transfected into the 293-T cells. The strength of luciferase was measured at the time of 24 h after administration, with 0.2‰ DMSO as a blank control.

Human PPARγ = biological target: T2, Human PPARγ (Homo sapiens, UniProt P37231); assay: Activity assay on activating human PPARγ (GAL4 chimeric receptor luciferase reporter, transient transfection in 293-T cells); format: cell-based; conditions: for Photon number (×10^4) / Increased multiple vs control: compound 10 μM; for Photon number (×10^4): luciferase measured 24 h after administration, control 1.4; for Increased multiple vs control: vs 0.2‰ DMSO blank control; for EC50: activation of PPARγ
T2 construct: expressed in transfected cells; host or cells: 293-T cells
T2 sequence (P37231 238-503 limits assumed): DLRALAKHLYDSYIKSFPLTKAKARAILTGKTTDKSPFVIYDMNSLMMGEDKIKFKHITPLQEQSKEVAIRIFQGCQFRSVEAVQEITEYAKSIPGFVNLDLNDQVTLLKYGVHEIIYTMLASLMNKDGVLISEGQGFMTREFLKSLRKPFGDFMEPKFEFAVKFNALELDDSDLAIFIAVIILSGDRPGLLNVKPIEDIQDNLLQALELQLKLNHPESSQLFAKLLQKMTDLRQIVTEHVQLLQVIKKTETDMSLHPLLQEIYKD
Protocol: as §1, §2

melting point | Photon number (×10^4) (Human PPARα) | Increased multiple vs control (Human PPARα) | Photon number (×10^4) (Human PPARγ) | Increased multiple vs control (Human PPARγ) | EC50 (Human PPARα) | EC50 (Human PPARγ) | SMILES
199 to 201 °C | 9.8 ×10^4 | 4.7 | 23.7 ×10^4 | 16.9 | 770 nM | 74 nM | Cc1oc(-c2ccccc2)nc1CCOc1ccc(C[C@H](NC(=O)C=Cc2ccco2)C(=O)O)cc1 [Example 9, (2S)-2-(3-(furan-2-yl)-acryloylamino)-3-{4-[2-(5-methyl-2-phenyl-1,3-oxazol-4-yl)-ethoxy]-phenyl}-propanoic acid]
 |  |  | 24.1 ×10^4 | 17.2 |  |  | Cc1ccc(C=CC(=O)N[C@@H](Cc2ccc(OCCc3nc(-c4ccccc4)oc3C)c(Br)c2)C(=O)O)cc1 [Example 10, (2S)-3-{3-bromo-4-[2-(5-methyl-2-phenyl-1,3-oxazol-4-yl)-ethoxy]-phenyl}-2-(3-p-tolylacryloylamino)-propanoic acid]
221 to 223 °C |  |  |  |  |  |  | Cc1oc(-c2ccccc2)nc1CCOc1ccc(C[C@H](NC(=O)C=Cc2ccc(F)cc2F)C(=O)O)cc1Br [Example 12, (2S)-3-{3-bromo-4-[2-(5-methyl-2-phenyl-1,3-oxazol-4-yl)-ethoxy]-phenyl}-2-(3-(2,4-difluorophenyl)-acryloylamino)-propanoic acid]

Continued, compound first:

SMILES | melting point | Photon number (×10^4) (Human PPARα) | Increased multiple vs control (Human PPARα) | Photon number (×10^4) (Human PPARγ) | Increased multiple vs control (Human PPARγ) | EC50 (Human PPARα) | EC50 (Human PPARγ)
Cc1oc(-c2ccccc2)nc1CCOc1ccc(C[C@H](NC(=O)C=Cc2ccc(F)cc2)C(=O)O)cc1 [Example 3, (2S)-2-(3-(4-fluorophenyl)acryloylamino)-3-{4-[2-(5-methyl-2-phenyl-1,3-oxazol-4-yl)-ethoxy]-phenyl}-propanoic acid] | 188 to 190 °C |  |  |  |  |  | 
Cc1oc(-c2ccccc2)nc1CCOc1ccc(C[C@H](NC(=O)C=Cc2ccc(F)c(F)c2)C(=O)O)cc1 [Example 7, (2S)-2-[3-(3,4-difluorophenyl)acryloylamino]-3-{4-[2-(5-methyl-2-phenyl-1,3-oxazol-4-yl)-ethoxy]-phenyl}-propanoic acid] |  | 8.6 ×10^4 | 4.1 | 29.0 ×10^4 | 20.7 |  | 
Cc1oc(-c2ccccc2)nc1CCOc1ccc(C[C@H](NC(=O)C=Cc2ccc(F)cc2F)C(=O)O)cc1 [Example 8, (2S)-2-[3-(2,4-difluorophenyl)-acryloylamino]-3-{4-[2-(5-methyl-2-phenyl-1,3-oxazol-4-yl)-ethoxy]-phenyl}-propanoic acid] |  | 18.8 ×10^4 | 8.9 | 27.6 ×10^4 | 19.7 | 4970 nM | 1160 nM
